Values quoted from earlier work in patent publication US20100105139A1, “Ligand Targeted Nanocapsules for the delivery of RNAi and other Agents” (priority 2008, published 2010).

System: advanced stage melanoma
Details: melanoma patients

COc1cccc2c1C(=O)c1c(O)c3c(c(O)c1C2=O)C[C@@](O)(C(=O)CO)C[C@@H]3O[C@H]1C[C@H](N)[C@H](O)[C@H](C)O1 [DOX, Doxorubicin]
response rates: essentially ineffective
